From ChEMBL document CHEMBL5303573, “Mapping human microbiome drug metabolism by gut bacteria and their genes” (Nature, 2019)

Experiments:
[1] = The drug is tested on Bacteroides xylanisolvens strain: DSM18836 for biotransformation. The drug concentrations were measured before and after a 12-h incubation by liquid-chromatography-coupled mass spectrometry (LC–MS); conditions: 2 µM
[2] = The drug is tested on Clostridium sporogenes strain: ATCC15579 for biotransformation. The drug concentrations were measured before and after a 12-h incubation by liquid-chromatography-coupled mass spectrometry (LC–MS); conditions: 2 µM
[3] = The drug is tested on Parabacteroides merdae strain: ATCC43184 for biotransformation. The drug concentrations were measured before and after a 12-h incubation by liquid-chromatography-coupled mass spectrometry (LC–MS); conditions: 2 µM
[4] = The drug is tested on Bacteroides fragilis strain: HMW610 for biotransformation. The drug concentrations were measured before and after a 12-h incubation by liquid-chromatography-coupled mass spectrometry (LC–MS); conditions: 2 µM
[5] = The drug is tested on Enterococcus faecalis strain: V583 for biotransformation. The drug concentrations were measured before and after a 12-h incubation by liquid-chromatography-coupled mass spectrometry (LC–MS); conditions: 2 µM
[6] = The drug is tested on Bacteroides uniformis strain: ATCC8492 for biotransformation. The drug concentrations were measured before and after a 12-h incubation by liquid-chromatography-coupled mass spectrometry (LC–MS); conditions: 2 µM
[7] = The drug is tested on Clostridium ramosum strain: DSM1402 for biotransformation. The drug concentrations were measured before and after a 12-h incubation by liquid-chromatography-coupled mass spectrometry (LC–MS); conditions: thomasclavelia ramosa, 2 µM
[8] = limosilactobacillus reuteri cf48-3a, 12 h, 2 µM
Description: The drug is tested on Lactobacillus reuteri CF48-3A strain: BEI HM-102 for biotransformation. The drug concentrations were measured before and after a 12-h incubation by liquid-chromatography-coupled mass spectrometry (LC–MS)

[9] = The drug is tested on Bacteroides fragilis strain: HMW615 for biotransformation. The drug concentrations were measured before and after a 12-h incubation by liquid-chromatography-coupled mass spectrometry (LC–MS); conditions: 2 µM
[10] = bacteroides thetaiotaomicron, 12 h, 2 µM
Description: The drug is tested on Bacteroides thetaiotaomicron strain: 7330 for biotransformation. The drug concentrations were measured before and after a 12-h incubation by liquid-chromatography-coupled mass spectrometry (LC–MS)

[11] = The drug is tested on Coprococcus comes strain: ATCC27758 for biotransformation. The drug concentrations were measured before and after a 12-h incubation by liquid-chromatography-coupled mass spectrometry (LC–MS); format: ADME; parameters: dose 2 uM, timepoint 0 vs 12 hours; conditions: 2 µM
[12] = The drug is tested on Anaerotruncus colihominis strain: DSM17241 for biotransformation. The drug concentrations were measured before and after a 12-h incubation by liquid-chromatography-coupled mass spectrometry (LC–MS); conditions: 2 µM
[13] = The drug is tested on Blautia hansenii strain: DSM20583 for biotransformation. The drug concentrations were measured before and after a 12-h incubation by liquid-chromatography-coupled mass spectrometry (LC–MS); conditions: 2 µM
[14] = The drug is tested on Bacteroides coprophilus strain: DSM18228 for biotransformation. The drug concentrations were measured before and after a 12-h incubation by liquid-chromatography-coupled mass spectrometry (LC–MS); conditions: 2 µM
[15] = bacteroides intestinalis, 12 h, 2 µM
Description: The drug is tested on Bacteroides intestinalis strain: DSM17393 for biotransformation. The drug concentrations were measured before and after a 12-h incubation by liquid-chromatography-coupled mass spectrometry (LC–MS)

[16] = The drug is tested on Bifidobacterium breve strain: DSM20213 for biotransformation. The drug concentrations were measured before and after a 12-h incubation by liquid-chromatography-coupled mass spectrometry (LC–MS); conditions: 2 µM
[17] = The drug is tested on Clostridium scindens strain: ATCC35704 for biotransformation. The drug concentrations were measured before and after a 12-h incubation by liquid-chromatography-coupled mass spectrometry (LC–MS); conditions: 2 µM
[18] = bacteroides thetaiotaomicron, 12 h, 2 µM; remark: listed apart in the source
Description: The drug is tested on Bacteroides thetaiotaomicron strain: 3731 for biotransformation. The drug concentrations were measured before and after a 12-h incubation by liquid-chromatography-coupled mass spectrometry (LC–MS)

[19] = roseburia intestinalis, 12 h, 2 µM
Description: The drug is tested on Roseburia intestinalis strain: L1-82 for biotransformation. The drug concentrations were measured before and after a 12-h incubation by liquid-chromatography-coupled mass spectrometry (LC–MS)

[20] = The drug is tested on Providencia rettgeri strain: DSM1131 for biotransformation. The drug concentrations were measured before and after a 12-h incubation by liquid-chromatography-coupled mass spectrometry (LC–MS); format: ADME; parameters: dose 2 uM, timepoint 0 vs 12 hours; conditions: 2 µM

SMILES	Bacterial Biotransformation [1]	Bacterial Biotransformation [2]	Bacterial Biotransformation [3]	Bacterial Biotransformation [4]	Bacterial Biotransformation [5]	Bacterial Biotransformation [6]	Bacterial Biotransformation [7]	Bacterial Biotransformation [8]	Bacterial Biotransformation [9]	Bacterial Biotransformation [10]	Bacterial Biotransformation [11]	Bacterial Biotransformation [12]	Bacterial Biotransformation [13]	Bacterial Biotransformation [14]	Bacterial Biotransformation [15]	Bacterial Biotransformation [16]	Bacterial Biotransformation [17]	Bacterial Biotransformation [18]	Bacterial Biotransformation [19]	Bacterial Biotransformation [20]
CCCCCNC(=N)N/N=C/c1c[nH]c2ccc(OC)cc12.O=C(O)/C=C\C(=O)O [TEGASEROD MALEATE]	Compound NOT metabolized	Compound NOT metabolized	Compound NOT metabolized	Compound NOT metabolized	Compound NOT metabolized	Compound NOT metabolized	Compound NOT metabolized	Compound NOT metabolized	Compound NOT metabolized	Compound NOT metabolized	Compound NOT metabolized	Compound NOT metabolized	Compound NOT metabolized	Compound NOT metabolized	Compound NOT metabolized	Compound NOT metabolized	Compound NOT metabolized	Compound NOT metabolized	Compound NOT metabolized	
CC(O)(CS(=O)(=O)c1ccc(F)cc1)C(=O)Nc1ccc(C#N)c(C(F)(F)F)c1 (stereo not given) [BICALUTAMIDE]	Compound NOT metabolized	Compound NOT metabolized	Compound NOT metabolized	Compound metabolized	Compound NOT metabolized	Compound NOT metabolized	Compound NOT metabolized	Compound NOT metabolized	Compound metabolized	Compound NOT metabolized	Compound NOT metabolized	Compound NOT metabolized	Compound NOT metabolized	Compound NOT metabolized	Compound NOT metabolized		Compound NOT metabolized	Compound NOT metabolized	Compound NOT metabolized	
Nc1nc2ccc(OC(F)(F)F)cc2s1 [RILUZOLE]	Compound metabolized	Compound NOT metabolized	Compound NOT metabolized	Compound metabolized	Compound NOT metabolized	Compound metabolized	Compound NOT metabolized	Compound NOT metabolized	Compound metabolized	Compound metabolized		Compound NOT metabolized	Compound metabolized	Compound NOT metabolized	Compound NOT metabolized	Compound NOT metabolized	Compound NOT metabolized	Compound NOT metabolized	Compound NOT metabolized	
CN1C(C(=O)Nc2ccccn2)=C(O)c2sccc2S1(=O)=O [TENOXICAM]		Compound NOT metabolized	Compound NOT metabolized	Compound NOT metabolized		Compound NOT metabolized	Compound NOT metabolized	Compound NOT metabolized	Compound NOT metabolized	Compound NOT metabolized			Compound NOT metabolized		Compound NOT metabolized	Compound NOT metabolized		Compound NOT metabolized	Compound NOT metabolized	
O=C1CC2(CCCC2)CC(=O)N1CCCCN1CCN(c2ncccn2)CC1 [BUSPIRONE]	Compound NOT metabolized	Compound NOT metabolized	Compound NOT metabolized	Compound NOT metabolized	Compound NOT metabolized	Compound NOT metabolized	Compound NOT metabolized	Compound NOT metabolized	Compound NOT metabolized	Compound NOT metabolized	Compound NOT metabolized	Compound NOT metabolized	Compound NOT metabolized	Compound NOT metabolized	Compound NOT metabolized		Compound NOT metabolized	Compound NOT metabolized	Compound NOT metabolized	
CC(CN1c2ccccc2Sc2ccccc21)N(C)C (stereo not given) [PROMETHAZINE]	Compound NOT metabolized	Compound NOT metabolized	Compound NOT metabolized	Compound NOT metabolized	Compound NOT metabolized	Compound NOT metabolized	Compound NOT metabolized	Compound NOT metabolized	Compound NOT metabolized		Compound NOT metabolized	Compound NOT metabolized	Compound NOT metabolized		Compound NOT metabolized	Compound NOT metabolized	Compound NOT metabolized	Compound NOT metabolized		
C[C@@H](c1ncncc1F)[C@](O)(Cn1cncn1)c1ccc(F)cc1F [VORICONAZOLE]	Compound metabolized	Compound NOT metabolized	Compound NOT metabolized	Compound metabolized	Compound NOT metabolized	Compound metabolized	Compound NOT metabolized	Compound NOT metabolized	Compound metabolized	Compound metabolized	Compound NOT metabolized	Compound NOT metabolized	Compound NOT metabolized			Compound NOT metabolized	Compound NOT metabolized		Compound NOT metabolized	
CCOc1ccccc1OCCN[C@H](C)Cc1ccc(OC)c(S(N)(=O)=O)c1.Cl [TAMSULOSIN HYDROCHLORIDE]	Compound NOT metabolized		Compound NOT metabolized	Compound NOT metabolized	Compound NOT metabolized	Compound NOT metabolized	Compound NOT metabolized	Compound NOT metabolized	Compound NOT metabolized	Compound NOT metabolized	Compound NOT metabolized	Compound NOT metabolized	Compound NOT metabolized	Compound NOT metabolized	Compound NOT metabolized	Compound NOT metabolized	Compound NOT metabolized	Compound NOT metabolized	Compound NOT metabolized	Compound NOT metabolized
CN1[C@@H]2CC[C@H]1C[C@@H](OC(=O)c1c[nH]c3ccccc13)C2 [TROPISETRON]	Compound NOT metabolized		Compound NOT metabolized	Compound NOT metabolized		Compound NOT metabolized	Compound NOT metabolized	Compound NOT metabolized	Compound NOT metabolized	Compound NOT metabolized	Compound NOT metabolized	Compound NOT metabolized	Compound NOT metabolized	Compound NOT metabolized	Compound NOT metabolized	Compound NOT metabolized	Compound NOT metabolized	Compound NOT metabolized	Compound NOT metabolized	Compound NOT metabolized
